# Laboratory results published in PubChem BioAssay (NCI).
#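 1) Cells in 96-well plates. 2) Compound, 48 h, 5 concentrations. 3) Linear interpolation between surrounding doses. 4) Unreached endpoint = highest concentration. TGI: concentration producing complete growth inhibition.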
# Columns and labels:
# Assay in all cases: DTP human tumour cell line panel, 48 h
# [1] = system: M14 melanoma
# [2] = system: T-47D breast
# [3] = system: UO-31 renal
# [4] = system: SF-268 CNS
# [5] = system: SK-MEL-5 melanoma
# [6] = system: SF-539 CNS
# [7] = system: SW-620 colon
# [8] = system: A549 NSCLC
# [9] = system: HCT-116 colon
# [10] = system: SNB-75 CNS
# [11] = system: NCI-H522 lung
# [12] = system: TK-10 renal
# [13] = system: EKVX NSCLC
# [14] = system: CAKI-1 renal
# [15] = system: CCRF-CEM leukemia
# [16] = system: SF-295 CNS
# [17] = system: BT-549 breast
# [18] = system: UACC-62 melanoma
# [19] = system: PC-3 prostate
# [20] = system: SK-MEL-2 melanoma
# [21] = system: MDA-MB-435
# [22] = system: HOP-92 NSCLC
# [23] = system: OVCAR-4 ovarian
# [24] = system: RXF 393 renal
# [25] = system: MCF7 breast
# [26] = system: SNB-19 CNS
# [27] = system: SN12C renal
# [28] = system: ACHN renal
# [29] = system: HS 578T breast
# [30] = system: HCT-15 colon
# [31] = system: 786-0 renal
# [32] = system: RPMI-8226 leukemia
# [33] = system: IGROV1 ovarian
# [34] = system: KM12 colon
# [35] = system: HL-60(TB) leukemia
# [36] = system: MALME-3M melanoma
# [37] = system: MDA-N
# [38] = system: K-562 leukemia
# [39] = system: HT29 colon
# [40] = system: MOLT-4 leukemia
# [41] = system: HCC-2998 colon
# [42] = system: NCI/ADR-RES ovarian
# [43] = system: COLO 205 colon
# [44] = system: MDA-MB-231 breast
# [45] = system: NCI-H460 lung
# [46] = system: HOP-62 NSCLC
# [47] = system: NCI-H23 lung
# [48] = system: UACC-257 melanoma
# [49] = system: OVCAR-8 ovarian
# [50] = system: OVCAR-3 ovarian
# [51] = system: DU-145 prostate
# [52] = system: LOX IMVI melanoma
# [53] = system: U251 CNS
# [54] = system: A498 renal
# [55] = system: SK-OV-3 ovarian
# [56] = system: NCI-H226 lung
# [57] = system: SK-MEL-28 melanoma
# [58] = system: OVCAR-5 ovarian
# [59] = system: SR leukemia
smiles,measurement,setting,value
O=C(O)c1ccccc1Sc1ccccc1[N+](=O)[O-],TGI,[1],> 100 µM
same,TGI,[2],> 100 µM
same,TGI,[3],> 100 µM
same,TGI,[4],> 100 µM
same,TGI,[5],> 100 µM
same,TGI,[6],> 100 µM
same,TGI,[7],> 100 µM
same,TGI,[8],> 100 µM
same,TGI,[9],> 100 µM
same,TGI,[10],> 100 µM
same,TGI,[11],> 100 µM
same,TGI,[12],> 100 µM
same,TGI,[13],> 100 µM
same,TGI,[14],> 100 µM
same,TGI,[15],> 100 µM
same,TGI,[16],> 100 µM
same,TGI,[17],> 100 µM
same,TGI,[18],> 100 µM
same,TGI,[19],> 100 µM
same,TGI,[20],> 100 µM
same,TGI,[21],> 100 µM
same,TGI,[22],> 100 µM
same,TGI,[23],> 100 µM
same,TGI,[24],> 100 µM
same,TGI,[25],> 100 µM
same,TGI,[26],> 100 µM
same,TGI,[27],> 100 µM
same,TGI,[28],> 100 µM
same,TGI,[29],> 100 µM
same,TGI,[30],> 100 µM
same,TGI,[31],> 100 µM
same,TGI,[32],> 100 µM
same,TGI,[33],> 100 µM
same,TGI,[34],> 100 µM
same,TGI,[35],> 100 µM
same,TGI,[36],> 100 µM
same,TGI,[37],> 100 µM
same,TGI,[38],> 100 µM
same,TGI,[39],> 100 µM
same,TGI,[40],> 100 µM
same,TGI,[41],> 100 µM
same,TGI,[42],> 100 µM
same,TGI,[43],> 100 µM
same,TGI,[44],> 100 µM
same,TGI,[45],> 100 µM
same,TGI,[46],> 100 µM
same,TGI,[47],> 100 µM
same,TGI,[48],> 100 µM
same,TGI,[49],> 100 µM
same,TGI,[50],> 100 µM
same,TGI,[51],> 100 µM
same,TGI,[52],> 100 µM
same,TGI,[53],> 100 µM
same,TGI,[54],> 100 µM
same,TGI,[55],> 100 µM
same,TGI,[56],> 100 µM
same,TGI,[57],> 100 µM
same,TGI,[58],> 100 µM
C/C(=N/OC(=O)c1cccc2c(=O)c3ccccc3[nH]c12)[C@H]1CC[C@H]2[C@@H]3CCC4=C/C(=N/OC(=O)c5cccc6c(=O)c7ccccc7[nH]c56)CC[C@]4(C)[C@H]3CC[C@]12C,TGI,[1],29.7 µM
same,TGI,[2],58.8 µM
same,TGI,[3],28.5 µM
same,TGI,[4],45.5 µM
same,TGI,[5],26.4 µM
same,TGI,[6],29.5 µM
same,TGI,[7],27.1 µM
same,TGI,[8],> 100 µM
same,TGI,[9],25 µM
same,TGI,[10],97.6 µM
same,TGI,[11],26.2 µM
same,TGI,[12],45.2 µM
same,TGI,[13],71.3 µM
same,TGI,[14],47.2 µM
same,TGI,[15],16.3 µM
same,TGI,[16],34.6 µM
same,TGI,[17],34.8 µM
same,TGI,[18],32.1 µM
same,TGI,[19],31.5 µM
same,TGI,[20],32.8 µM
same,TGI,[21],33.3 µM
same,TGI,[22],42.6 µM
same,TGI,[23],> 100 µM
same,TGI,[25],26.4 µM
same,TGI,[26],39.4 µM
same,TGI,[27],30.6 µM
same,TGI,[28],29.5 µM
same,TGI,[29],> 100 µM
same,TGI,[30],27 µM
same,TGI,[31],44.7 µM
same,TGI,[32],14.6 µM
same,TGI,[33],37.1 µM
same,TGI,[34],38.2 µM
same,TGI,[35],34 µM
same,TGI,[36],37.3 µM
same,TGI,[37],30.3 µM
same,TGI,[38],> 100 µM
same,TGI,[39],28.8 µM
same,TGI,[40],39.6 µM
same,TGI,[41],26.9 µM
same,TGI,[42],43.1 µM
same,TGI,[43],30.3 µM
same,TGI,[44],30.6 µM
same,TGI,[46],51.2 µM
same,TGI,[47],29.9 µM
same,TGI,[48],33.4 µM
same,TGI,[49],33.3 µM
same,TGI,[50],34.4 µM
same,TGI,[51],79.3 µM
same,TGI,[52],26.7 µM
same,TGI,[53],29.6 µM
same,TGI,[55],93.2 µM
same,TGI,[56],52.8 µM
same,TGI,[59],25.3 µM
same,TGI,[58],33.7 µM
CC1(O)CCC(C(C)(C)O)CC1 (stereo not given),TGI,[1],> 100 µM
same,TGI,[2],> 100 µM
same,TGI,[3],> 100 µM
same,TGI,[4],> 100 µM
same,TGI,[5],> 100 µM
same,TGI,[6],> 100 µM
same,TGI,[7],> 100 µM
same,TGI,[8],> 100 µM
same,TGI,[9],> 100 µM
same,TGI,[10],> 100 µM
same,TGI,[11],> 100 µM
same,TGI,[12],> 100 µM
same,TGI,[13],> 100 µM
same,TGI,[14],> 100 µM
same,TGI,[15],> 100 µM
same,TGI,[16],> 100 µM
same,TGI,[17],> 100 µM
same,TGI,[18],> 100 µM
same,TGI,[19],> 100 µM
same,TGI,[20],> 100 µM
same,TGI,[21],> 100 µM
same,TGI,[22],> 100 µM
same,TGI,[23],> 100 µM
same,TGI,[25],> 100 µM
same,TGI,[26],> 100 µM
same,TGI,[27],> 100 µM
same,TGI,[28],> 100 µM
same,TGI,[29],> 100 µM
same,TGI,[30],> 100 µM
same,TGI,[31],> 100 µM
same,TGI,[32],> 100 µM
same,TGI,[33],> 100 µM
same,TGI,[34],> 100 µM
same,TGI,[35],> 100 µM
same,TGI,[37],> 100 µM
same,TGI,[38],> 100 µM
same,TGI,[39],> 100 µM
same,TGI,[40],> 100 µM
same,TGI,[41],> 100 µM
same,TGI,[42],> 100 µM
same,TGI,[43],> 100 µM
same,TGI,[44],> 100 µM
same,TGI,[45],> 100 µM
same,TGI,[46],> 100 µM
same,TGI,[47],> 100 µM
same,TGI,[48],> 100 µM
same,TGI,[49],> 100 µM
same,TGI,[50],> 100 µM
same,TGI,[51],> 100 µM
same,TGI,[52],> 100 µM
same,TGI,[53],> 100 µM
same,TGI,[54],> 100 µM
same,TGI,[55],> 100 µM
same,TGI,[56],> 100 µM
same,TGI,[57],> 100 µM
same,TGI,[59],> 100 µM
same,TGI,[58],> 100 µM
